Assay results: PubChem BioAssay AID1963443 (Molecular Pharmacology Branch, DTP, NCI, 2024)
Where “and” joins values, the source holds several entries; their conditions need not be identical. Equal values may be shown once.

Tested on: MDA-MB-231 complex spheroids, growth inhibition
Assay: Anticancer human tumor MDA-MB-231 cell line growth inhibition [Asc];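 also: spheroids exposed to compounds for 7 days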
Conditions: for viability, T/C: stronger effect = lower value
Method in brief: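 Concentration series start at each agent's clinical Cmax, or at 10 microM when none is established, and drop in half-log steps; agents are applied alone or together to complex spheroids built with HUVEC and hMSC.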

[1] = curve of first compound, second compound 0.01 µM
[2] = curve of first compound, second compound 0.0316 µM
[3] = curve of first compound, second compound 0.1 µM
[4] = curve of first compound, second compound 0.316 µM
[5] = curve of first compound, second compound 1 µM
[6] = second compound 0.01 µM, first compound 0.00949 µM
[7] = second compound 0.01 µM, first compound 0.03 µM
[8] = second compound 0.01 µM, first compound 0.0949 µM
[9] = second compound 0.01 µM, first compound 0.3 µM
[10] = second compound 0.01 µM, first compound 0.949 µM
[11] = second compound 0.01 µM, first compound 3 µM
[12] = second compound 0.0316 µM, first compound 0.00949 µM
[13] = second compound 0.0316 µM, first compound 0.03 µM
[14] = second compound 0.0316 µM, first compound 0.0949 µM
[15] = second compound 0.0316 µM, first compound 0.3 µM
[16] = second compound 0.0316 µM, first compound 0.949 µM
[17] = second compound 0.0316 µM, first compound 3 µM
[18] = second compound 0.1 µM, first compound 0.00949 µM
[19] = second compound 0.1 µM, first compound 0.03 µM
[20] = second compound 0.1 µM, first compound 0.0949 µM
[21] = second compound 0.1 µM, first compound 0.3 µM
[22] = second compound 0.1 µM, first compound 0.949 µM
[23] = second compound 0.1 µM, first compound 3 µM
[24] = second compound 0.316 µM, first compound 0.00949 µM
[25] = second compound 0.316 µM, first compound 0.03 µM
[26] = second compound 0.316 µM, first compound 0.0949 µM
[27] = second compound 0.316 µM, first compound 0.3 µM
[28] = second compound 0.316 µM, first compound 0.949 µM
[29] = second compound 0.316 µM, first compound 3 µM
[30] = second compound 1 µM, first compound 0.00949 µM
[31] = second compound 1 µM, first compound 0.03 µM
[32] = second compound 1 µM, first compound 0.0949 µM
[33] = second compound 1 µM, first compound 0.3 µM
[34] = second compound 1 µM, first compound 0.949 µM
[35] = second compound 1 µM, first compound 3 µM

With `Cc1nc(N2CCC3(CC2)COC(C)C3N)c(CO)nc1Sc1ccnc(N)c1Cl` (stereo not given) + CNC(C)C(=O)NC1CN(S(=O)(=O)c2cccc(S(=O)(=O)N3CCC4CCC(C(=O)NC(c5ccccc5)c5ccccc5)N4C(=O)C(NC(=O)C(C)NC)C3)c2)CCC2CCC(C(=O)NC(c3ccccc3)c3ccccc3)N2C1=O the IC50 (curve of first compound, second compound 0.00316 µM) was under 9.49 nM, the IC50 [1] was under 9.49 nM and the IC50 [2] was under 9.49 nM. The IC50 [3] was under 9.49 nM, the IC50 [4] was 496 nM and the IC50 [5] was 487 nM. For the same molecule, the viability, T/C (second compound 0.00316 µM, first compound 0.00949 µM) was 6.2%, the viability, T/C (second compound 0.00316 µM, first compound 0.03 µM) was 3.59% and the viability, T/C (second compound 0.00316 µM, first compound 0.0949 µM) was 3.91%. The viability, T/C (second compound 0.00316 µM, first compound 0.3 µM) was 2.35%, the viability, T/C (second compound 0.00316 µM, first compound 0.949 µM) was 1.9% and the viability, T/C (second compound 0.00316 µM, first compound 3 µM) was 0.75%. It also gave a viability, T/C [6] of 3.06%, a viability, T/C [7] of 1.64% and a viability, T/C [8] of 2.31%. For the same molecule, the viability, T/C [9] was 2.09%, the viability, T/C [10] was 1.16% and the viability, T/C [11] was 1.06%. For the same molecule, the viability, T/C [12] was 1.57%, the viability, T/C [13] was 2.27% and the viability, T/C [14] was 1.35%. For the same molecule, the viability, T/C [15] was 1%, the viability, T/C [16] was 2.18% and the viability, T/C [17] was 1.27%. The viability, T/C [18] was 1.75%, the viability, T/C [19] was 1.36% and the viability, T/C [20] was 0.97%. The viability, T/C [21] was 0.62%, the viability, T/C [22] was 1.23% and the viability, T/C [23] was 1.82%. For the same molecule, the viability, T/C [24] was 108%, the viability, T/C [25] was 101% and the viability, T/C [26] was 108%. The viability, T/C [27] was 86.6%, the viability, T/C [28] was 2.83% and the viability, T/C [29] was 0.94%. It also gave a viability, T/C [30] of 99.5%, a viability, T/C [31] of 113% and a viability, T/C [32] of 99.9%. For the same molecule, the viability, T/C [33] was 83.4%, the viability, T/C [34] was 3.91% and the viability, T/C [35] was 0.93%.

`CNC(C)C(=O)NC1CN(S(=O)(=O)c2cccc(S(=O)(=O)N3CCC4CCC(C(=O)NC(c5ccccc5)c5ccccc5)N4C(=O)C(NC(=O)C(C)NC)C3)c2)CCC2CCC(C(=O)NC(c3ccccc3)c3ccccc3)N2C1=O` (stereo not given) was tested, and the viability, T/C (compound 0.00316 µM) was 5.11% and 4.58% and 5.25%, the viability, T/C (compound 0.01 µM) was 2.25% [middle of 14 runs] and the viability, T/C (compound 0.0316 µM) was 1.55% [middle of 14 runs]. For the same molecule, the viability, T/C (compound 0.1 µM) was 1.38% [middle of 12 runs], the IC50 (compound alone, run of 10/24/2022) was under 10 nM and the IC50 (compound alone, run of 11/15/2022) was under 3.16 nM. It also gave an IC50 (curve of compound) of under 3.16 nM.

Molecule `CCN1C(C(=O)NC23CCC(C(=O)O)(CC2)CC3)C(c2cccc(Cl)c2F)C2(C(=O)Nc3cc(Cl)ccc32)C12CCCCC2` (stereo not given) + CNC(C)C(=O)NC1CN(S(=O)(=O)c2cccc(S(=O)(=O)N3CCC4CCC(C(=O)NC(c5ccccc5)c5ccccc5)N4C(=O)C(NC(=O)C(C)NC)C3)c2)CCC2CCC(C(=O)NC(c3ccccc3)c3ccccc3)N2C1=O has an IC50 [1] of under 9.49 nM, an IC50 [2] of under 9.49 nM and an IC50 [3] of under 9.49 nM. For the same molecule, the IC50 [4] was under 9.49 nM, the IC50 [5] was under 9.49 nM and the viability, T/C [6] was 2.02%. For the same molecule, the viability, T/C [7] was 2.75%, the viability, T/C [8] was 1.79% and the viability, T/C [9] was 1.37%. It also gave a viability, T/C [10] of 2.73%, a viability, T/C [11] of 2.05% and a viability, T/C [12] of 1.54%. For the same molecule, the viability, T/C [13] was 2.84%, the viability, T/C [14] was 1.94% and the viability, T/C [15] was 0.92%. It also gave a viability, T/C [16] of 1.76%, a viability, T/C [17] of 1.43% and a viability, T/C [18] of 1.27%. The viability, T/C [19] was 1.6%, the viability, T/C [20] was 1.85% and the viability, T/C [21] was 0.87%. For the same molecule, the viability, T/C [22] was 1.78%, the viability, T/C [23] was 2.03% and the viability, T/C [24] was 0.92%. For the same molecule, the viability, T/C [25] was 2.14%, the viability, T/C [26] was 1.07% and the viability, T/C [27] was 0.78%. For the same molecule, the viability, T/C [28] was 1.14%, the viability, T/C [29] was 1.24% and the viability, T/C [30] was 1.09%. For the same molecule, the viability, T/C [31] was 0.9%, the viability, T/C [32] was 0.88% and the viability, T/C [33] was 2.3%. The viability, T/C [34] was 0.81% and the viability, T/C [35] was 0.71%.

`Cc1c(S(C)(=O)=O)c(-c2cc(F)cc(N3CCN(c4ccc(NS(=O)(=O)c5ccc(NC(CCN6CCC(C(=O)OCCCP(=O)(O)O)CC6)CSc6ccccc6)c(S(=O)(=O)C(F)(F)F)c5)cc4)CC3)c2)c(-c2ccc(Cl)cc2)n1C(C)C` (stereo not given) was tested, and the viability, T/C (compound 0.1 µM) was 96.4% [middle of 14 runs], the viability, T/C (compound 0.316 µM) was 105% [middle of 14 runs] and the viability, T/C (compound 1 µM) was 98.3% [middle of 14 runs]. For the same molecule, the viability, T/C (compound 3.16 µM) was 98.5% [middle of 14 runs], the viability, T/C (compound 10 µM) was 95% [middle of 14 runs] and the IC50 (compound alone, run of 10/11/2022) was over 10000 nM.

Molecule `C=CC(=O)N1CCN(c2nc(=O)n(-c3c(C)ccnc3C(C)C)c3nc(-c4c(O)cccc4F)c(F)cc23)C(C)C1` (stereo not given) + CNC(C)C(=O)NC1CN(S(=O)(=O)c2cccc(S(=O)(=O)N3CCC4CCC(C(=O)NC(c5ccccc5)c5ccccc5)N4C(=O)C(NC(=O)C(C)NC)C3)c2)CCC2CCC(C(=O)NC(c3ccccc3)c3ccccc3)N2C1=O has an IC50 [1] of under 31.6 nM, an IC50 [2] of under 31.6 nM and an IC50 [3] of under 31.6 nM. It also gave an IC50 [4] of under 31.6 nM, an IC50 [5] of under 31.6 nM and a viability, T/C (second compound 0.01 µM, first compound 0.0316 µM) of 4.27%. It also gave a viability, T/C (second compound 0.01 µM, first compound 0.1 µM) of 4.47%, a viability, T/C (second compound 0.01 µM, first compound 0.316 µM) of 3.48% and a viability, T/C (second compound 0.01 µM, first compound 1 µM) of 4.14%. It also gave a viability, T/C (second compound 0.01 µM, first compound 3.16 µM) of 3.21%, a viability, T/C (second compound 0.01 µM, first compound 10 µM) of 2.6% and a viability, T/C (second compound 0.0316 µM, first compound 0.0316 µM) of 1.6%. The viability, T/C (second compound 0.0316 µM, first compound 0.1 µM) was 1.97%, the viability, T/C (second compound 0.0316 µM, first compound 0.316 µM) was 3.62% and the viability, T/C (second compound 0.0316 µM, first compound 1 µM) was 3.15%. For the same molecule, the viability, T/C (second compound 0.0316 µM, first compound 3.16 µM) was 2.97%, the viability, T/C (second compound 0.0316 µM, first compound 10 µM) was 3.77% and the viability, T/C (second compound 0.1 µM, first compound 0.0316 µM) was 1.84%. It also gave a viability, T/C (second compound 0.1 µM, first compound 0.1 µM) of 1.71%, a viability, T/C (second compound 0.1 µM, first compound 0.316 µM) of 1.31% and a viability, T/C (second compound 0.1 µM, first compound 1 µM) of 0.87%. The viability, T/C (second compound 0.1 µM, first compound 3.16 µM) was 2.25%, the viability, T/C (second compound 0.1 µM, first compound 10 µM) was 1.71% and the viability, T/C (second compound 0.316 µM, first compound 0.0316 µM) was 1.02%. For the same molecule, the viability, T/C (second compound 0.316 µM, first compound 0.1 µM) was 1.06%, the viability, T/C (second compound 0.316 µM, first compound 0.316 µM) was 2.22% and the viability, T/C (second compound 0.316 µM, first compound 1 µM) was 1.43%. For the same molecule, the viability, T/C (second compound 0.316 µM, first compound 3.16 µM) was 1.4%, the viability, T/C (second compound 0.316 µM, first compound 10 µM) was 2.33% and the viability, T/C (second compound 1 µM, first compound 0.0316 µM) was 1.09%. The viability, T/C (second compound 1 µM, first compound 0.1 µM) was 1.13%, the viability, T/C (second compound 1 µM, first compound 0.316 µM) was 1.81% and the viability, T/C (second compound 1 µM, first compound 1 µM) was 1.73%. It also gave a viability, T/C (second compound 1 µM, first compound 3.16 µM) of 1.35% and a viability, T/C (second compound 1 µM, first compound 10 µM) of 3.82%.
